We go through three compounds from ChEMBL document CHEMBL4304775, “Identification and characterization of a novel chemotype for human TLR8 inhibitors” (Eur J Med Chem, 2019).

Each structure is given as a SMILES string. Calls of active or inactive are those of the source. The rule behind the calls is not given here.

Series [1] addresses T1, Toll-like receptor 8 (Homo sapiens) (UniProt Q9NR97).
T1 sequence (whole entry): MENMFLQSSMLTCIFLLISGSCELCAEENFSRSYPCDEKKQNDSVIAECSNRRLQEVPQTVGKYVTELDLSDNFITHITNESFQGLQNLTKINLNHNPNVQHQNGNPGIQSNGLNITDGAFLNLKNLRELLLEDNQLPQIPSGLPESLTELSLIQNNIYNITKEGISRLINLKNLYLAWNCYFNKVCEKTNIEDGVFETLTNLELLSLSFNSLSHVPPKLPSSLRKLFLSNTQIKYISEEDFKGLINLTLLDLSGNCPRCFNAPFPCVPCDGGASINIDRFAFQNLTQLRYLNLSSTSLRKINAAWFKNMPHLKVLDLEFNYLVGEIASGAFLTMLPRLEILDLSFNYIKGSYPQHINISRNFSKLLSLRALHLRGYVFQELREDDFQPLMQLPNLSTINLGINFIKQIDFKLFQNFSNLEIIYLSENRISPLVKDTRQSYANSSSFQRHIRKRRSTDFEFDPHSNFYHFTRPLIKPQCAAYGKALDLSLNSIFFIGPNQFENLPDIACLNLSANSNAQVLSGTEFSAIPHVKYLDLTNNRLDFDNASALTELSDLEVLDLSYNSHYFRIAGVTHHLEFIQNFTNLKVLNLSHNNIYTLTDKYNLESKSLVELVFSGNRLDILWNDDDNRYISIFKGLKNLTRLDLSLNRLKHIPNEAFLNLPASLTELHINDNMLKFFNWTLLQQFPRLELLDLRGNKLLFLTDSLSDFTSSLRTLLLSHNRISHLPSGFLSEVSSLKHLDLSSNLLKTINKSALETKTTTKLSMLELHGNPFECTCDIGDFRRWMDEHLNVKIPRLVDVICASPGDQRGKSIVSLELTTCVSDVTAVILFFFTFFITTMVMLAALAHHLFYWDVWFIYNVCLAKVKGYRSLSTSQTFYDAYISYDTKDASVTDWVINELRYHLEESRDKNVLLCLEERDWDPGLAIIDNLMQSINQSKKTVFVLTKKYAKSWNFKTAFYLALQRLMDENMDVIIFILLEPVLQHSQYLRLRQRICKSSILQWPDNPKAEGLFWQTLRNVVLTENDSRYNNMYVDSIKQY
In words: Activation of human TLR8 expressed in HEK-Blue cells assessed as increase in NF-kappaB activation at 5 to 25 uM incubated for 24 hrs by quanti-blue SEAP assay. Format: cell-based.

Series [2] addresses Toll-like receptor 3 (Homo sapiens) (UniProt O15455). Kind of series: […] at TLR3 in human THP1 cells assessed as inhibition of poly(A:U)-induced IL-8 secretion preincubated for 1 hr followed by poly(A:U)-stimulation and measured after 24 hrs by ELISA. It is filed as cell-based. On the technique in general: An ELISA detects its analyte on a solid surface through an enzyme-linked reagent.

Series [3] deals with T2, Toll-like receptor 9 (Homo sapiens) (UniProt Q9NR96).
T2 sequence (whole entry): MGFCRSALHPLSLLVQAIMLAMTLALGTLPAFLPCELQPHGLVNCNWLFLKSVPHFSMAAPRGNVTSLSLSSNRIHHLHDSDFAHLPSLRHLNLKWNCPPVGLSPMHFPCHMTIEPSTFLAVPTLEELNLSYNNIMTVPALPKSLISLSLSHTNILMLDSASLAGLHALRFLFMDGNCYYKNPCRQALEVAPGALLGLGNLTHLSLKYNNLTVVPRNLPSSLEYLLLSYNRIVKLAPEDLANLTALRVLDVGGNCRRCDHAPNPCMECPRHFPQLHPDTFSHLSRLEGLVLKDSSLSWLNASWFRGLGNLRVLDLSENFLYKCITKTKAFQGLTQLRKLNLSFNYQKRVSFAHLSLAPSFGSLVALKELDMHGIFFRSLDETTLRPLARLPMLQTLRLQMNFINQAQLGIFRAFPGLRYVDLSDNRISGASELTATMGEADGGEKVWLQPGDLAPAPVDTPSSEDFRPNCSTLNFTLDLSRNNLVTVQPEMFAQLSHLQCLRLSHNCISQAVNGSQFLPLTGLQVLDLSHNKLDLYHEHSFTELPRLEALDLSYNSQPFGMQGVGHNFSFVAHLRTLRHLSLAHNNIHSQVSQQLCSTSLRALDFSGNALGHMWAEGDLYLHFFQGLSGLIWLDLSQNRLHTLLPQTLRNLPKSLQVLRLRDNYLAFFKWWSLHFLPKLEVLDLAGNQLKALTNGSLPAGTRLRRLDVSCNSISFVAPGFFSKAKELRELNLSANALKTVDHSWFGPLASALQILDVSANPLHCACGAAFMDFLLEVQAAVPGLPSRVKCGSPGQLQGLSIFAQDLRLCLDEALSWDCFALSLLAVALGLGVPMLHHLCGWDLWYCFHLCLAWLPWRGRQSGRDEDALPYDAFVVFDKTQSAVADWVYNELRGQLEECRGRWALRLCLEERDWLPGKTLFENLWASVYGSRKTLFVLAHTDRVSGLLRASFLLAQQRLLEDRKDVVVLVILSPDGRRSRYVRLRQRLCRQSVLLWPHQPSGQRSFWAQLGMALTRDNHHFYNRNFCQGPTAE
In words: […] at TLR9 in human THP1 cells assessed as inhibition of ODN2006-induced IL-8 secretion preincubated for 1 hr followed by ODN2006-stimulation and measured after 24 hrs by ELISA. It is filed as cell-based.

For series [4], the target named is Toll-like receptor 3 (Homo sapiens) (UniProt O15455). Kind of series: […] at TLR3 in human THP1 cells assessed as inhibition of poly(I:C)-induced IL-8 secretion preincubated for 1 hr followed by poly(I:C)-stimulation and measured after 24 hrs by ELISA. It is filed as cell-based.
Sequence of Toll-like receptor 3 (Homo sapiens) (O15455 whole entry): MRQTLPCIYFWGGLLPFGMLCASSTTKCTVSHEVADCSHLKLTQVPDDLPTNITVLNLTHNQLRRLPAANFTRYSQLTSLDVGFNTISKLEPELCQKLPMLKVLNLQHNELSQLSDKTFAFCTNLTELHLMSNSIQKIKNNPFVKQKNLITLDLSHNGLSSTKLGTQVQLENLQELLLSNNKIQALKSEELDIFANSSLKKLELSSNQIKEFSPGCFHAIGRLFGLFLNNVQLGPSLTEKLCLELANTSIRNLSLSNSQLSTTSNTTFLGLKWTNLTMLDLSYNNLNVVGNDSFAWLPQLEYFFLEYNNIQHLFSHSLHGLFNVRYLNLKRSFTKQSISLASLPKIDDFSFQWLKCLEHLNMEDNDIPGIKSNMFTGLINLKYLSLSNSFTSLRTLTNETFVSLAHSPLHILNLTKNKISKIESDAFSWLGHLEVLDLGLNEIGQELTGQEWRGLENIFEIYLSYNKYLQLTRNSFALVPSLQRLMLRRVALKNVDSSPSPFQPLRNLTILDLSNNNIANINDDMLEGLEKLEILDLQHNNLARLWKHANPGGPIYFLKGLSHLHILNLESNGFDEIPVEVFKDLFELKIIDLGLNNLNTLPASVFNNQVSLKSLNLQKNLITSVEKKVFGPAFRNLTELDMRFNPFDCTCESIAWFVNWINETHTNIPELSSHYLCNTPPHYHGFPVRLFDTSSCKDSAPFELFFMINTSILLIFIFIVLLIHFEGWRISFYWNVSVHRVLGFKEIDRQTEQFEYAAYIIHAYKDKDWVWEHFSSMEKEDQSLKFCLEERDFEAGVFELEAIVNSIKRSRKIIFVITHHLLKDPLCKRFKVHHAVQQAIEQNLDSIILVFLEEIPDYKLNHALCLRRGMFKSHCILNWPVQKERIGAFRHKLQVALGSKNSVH
The target of series [5] is Toll-like receptor 5 (Homo sapiens) (UniProt O60602). In words: […] at TLR5 in human THP1 cells assessed as inhibition of flagellin-induced IL-8 secretion preincubated for 1 hr followed by flagellin stimulation and measured after 24 hrs by ELISA. Format: cell-based.
Sequence of Toll-like receptor 5 (Homo sapiens) (O60602 whole entry): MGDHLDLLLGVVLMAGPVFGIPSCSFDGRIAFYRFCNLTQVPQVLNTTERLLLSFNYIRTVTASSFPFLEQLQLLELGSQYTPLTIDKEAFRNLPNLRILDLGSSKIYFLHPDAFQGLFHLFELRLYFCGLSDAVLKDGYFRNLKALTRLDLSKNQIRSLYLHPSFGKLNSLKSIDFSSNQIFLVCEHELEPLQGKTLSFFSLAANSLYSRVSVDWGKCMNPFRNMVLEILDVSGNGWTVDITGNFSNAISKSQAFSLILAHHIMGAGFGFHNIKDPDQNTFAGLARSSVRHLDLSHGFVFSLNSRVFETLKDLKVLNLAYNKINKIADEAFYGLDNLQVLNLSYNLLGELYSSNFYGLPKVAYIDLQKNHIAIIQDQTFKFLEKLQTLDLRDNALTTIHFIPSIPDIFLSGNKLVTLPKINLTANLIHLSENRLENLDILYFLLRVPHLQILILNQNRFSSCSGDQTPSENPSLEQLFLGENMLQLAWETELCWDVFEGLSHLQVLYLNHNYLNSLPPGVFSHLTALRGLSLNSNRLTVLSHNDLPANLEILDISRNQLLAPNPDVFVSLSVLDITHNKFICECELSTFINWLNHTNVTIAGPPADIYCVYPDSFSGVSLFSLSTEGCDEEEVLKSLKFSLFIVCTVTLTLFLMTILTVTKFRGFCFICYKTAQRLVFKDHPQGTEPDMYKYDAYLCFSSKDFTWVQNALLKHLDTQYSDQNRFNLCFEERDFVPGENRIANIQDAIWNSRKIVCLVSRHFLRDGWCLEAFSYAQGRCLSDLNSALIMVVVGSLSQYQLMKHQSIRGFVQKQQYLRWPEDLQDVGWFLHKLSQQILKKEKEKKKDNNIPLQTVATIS
The test system of a further series is THP-1. In words: Antiinflammatory activity in human THP1 cells assessed as reduction in CL075-induced TNF secretion at 10 to 25 uM preincubated for 1 hr followed by CL075-stimulation and measured after 4 hrs by ELISA relative to control. Format: functional.
The next series has as its target T3, Toll-like receptor 8 (Homo sapiens, UniProt Q9NR97).
T3 sequence (Q9NR97 whole entry): T1 sequence (whole entry)
Kind of series: Antagonist activity at human TLR8 expressed in HEK-Blue cells assessed as inhibition of CL075-induced NF-kappaB activation incubated for 1 hr followed by CL075-stimulation and measured after 24 hrs by quanti-blue SEAP assay. Format: cell-based.

The target of series [6] is T1, Toll-like receptor 8 (Homo sapiens). In words: Antagonist activity at human TLR8 expressed in HEK-Blue cells assessed as reduction in CL075-induced NF-kappaB activation at 10 to 25 uM incubated for 1 hr followed by CL075-stimulation and measured after 24 hrs by quanti-blue SEAP assay relative to control. Format: cell-based.
For series [7], the target named is Toll-like receptor 4 (Homo sapiens) (UniProt O00206). In words: […] at TLR4 in human THP1 cells assessed as inhibition of LPS-induced IL-8 secretion preincubated for 1 hr followed by LPS-stimulation and measured after 24 hrs by ELISA. Format: cell-based.
Sequence of Toll-like receptor 4 (Homo sapiens) (O00206 whole entry): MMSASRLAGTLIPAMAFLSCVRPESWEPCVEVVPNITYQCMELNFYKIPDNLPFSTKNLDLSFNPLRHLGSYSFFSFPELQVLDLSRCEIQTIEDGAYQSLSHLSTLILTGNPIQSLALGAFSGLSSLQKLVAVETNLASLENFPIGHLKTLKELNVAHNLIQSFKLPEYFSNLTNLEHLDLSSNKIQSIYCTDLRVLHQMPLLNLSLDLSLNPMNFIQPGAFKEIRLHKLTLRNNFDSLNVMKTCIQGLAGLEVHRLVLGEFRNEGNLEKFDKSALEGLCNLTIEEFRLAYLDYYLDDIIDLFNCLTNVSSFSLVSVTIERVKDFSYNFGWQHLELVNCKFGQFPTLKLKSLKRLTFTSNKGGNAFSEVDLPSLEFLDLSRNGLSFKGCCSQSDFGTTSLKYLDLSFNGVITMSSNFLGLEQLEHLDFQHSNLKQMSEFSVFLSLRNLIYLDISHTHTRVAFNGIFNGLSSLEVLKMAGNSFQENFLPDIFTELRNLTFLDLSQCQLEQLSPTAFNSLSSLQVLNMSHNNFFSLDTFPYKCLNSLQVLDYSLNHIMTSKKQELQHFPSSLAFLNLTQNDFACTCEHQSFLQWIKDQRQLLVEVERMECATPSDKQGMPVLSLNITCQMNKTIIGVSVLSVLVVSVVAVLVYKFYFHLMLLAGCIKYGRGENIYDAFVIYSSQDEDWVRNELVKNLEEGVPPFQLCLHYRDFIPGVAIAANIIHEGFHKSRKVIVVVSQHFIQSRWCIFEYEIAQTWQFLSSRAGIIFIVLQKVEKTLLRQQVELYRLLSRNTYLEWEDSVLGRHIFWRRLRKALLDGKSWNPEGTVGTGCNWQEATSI
The nature of series [8]: Cytotoxicity against human HEK-Blue cells transfected with hTLR8 at 25 to 50 uM after 24 hrs by MTT assay. Format: cell-based.

A word on the inhibition: it is the percentage by which the read-out fell short of the control. Broadly, the IC50 is the midpoint of a concentration-inhibition curve. As for `FC(F)(F)c1cc(-c2ccco2)nc(NCc2cccs2)n1`, in [1], the result was inactive. In addition, the inhibition result in [2], in series [3], in series [4], in series [5] and in series [7] was “inactive” throughout. Besides, in the series on THP-1, the “inhibition (INH)” value was found to be 40%. Besides, at Toll-like receptor 8, the IC50 worked out at 9.2 µM. Besides, the inhibition in series [6] came out at 50%.

For `CCCCNc1nc(-c2cccs2)cc(C(F)(F)F)n1`, the outcome in series [1] was inactive. In addition, the inhibition entry in series [2], in [3], in series [4], in series [5] and in series [7] was “inactive” throughout. Also, the Activity entry in series [8] is given as “Non-Toxic”. The “inhibition (INH)” value with THP-1 is listed as above 60%. Besides, the IC50 on Toll-like receptor 8 was 35.5 µM. Moreover, in series [6], the inhibition was determined as 100%.

Consider `FC(F)(F)c1cc(-c2ccccc2)nc(NCc2cccs2)n1`, for which, in series [1], the result was inactive. The inhibition result in [2], in series [3], in series [4], in [5] and in [7] was “inactive” in each case. Also, the Activity result in series [8] is given as “Non-Toxic”. In addition, the “inhibition (INH)” value in the series on THP-1 amounted to 40%. Besides, at Toll-like receptor 8, the IC50 is 20 µM. The inhibition in [6] was 100%.
